Results taken from ChEMBL document CHEMBL3865836, “Biosynthesis-Inspired Total Synthesis of Bioactive Styryllactones (+)-Goniodiol, (6S,7S,8S)-Goniodiol, (-)-Parvistone D, and (+)-Parvistone E” (J Nat Prod, 2016).

Assays:
[1] = Cytotoxicity against human A549 cells; type: functional; conditions: read-out: ED50 (the source's name)
[2] = Cytotoxicity against mouse P388 cells; type: functional, cell-based
[3] = Cytotoxicity against human Bel7470 cells by trypan blue dye exclusion method; type: functional, cell-based
[4] = Cytotoxicity against human Bcap32 cells by trypan blue dye exclusion method; type: functional, cell-based
[5] = Cytotoxicity against human HeLa cells by trypan blue dye exclusion method; type: functional, cell-based

Structure (SMILES)	EC50 [1] [µM]	IC50 [2] [µM]	IC50 [3] [µM]	IC50 [4] [µM]	IC50 [5] [µM]
O=C1C=CC[C@H]([C@H](O)[C@H](O)c2ccccc2)O1 [GONIODIOL]	0.51	19.5	–	–	–
O=C1C=CC[C@H]([C@@H](O)[C@H](O)c2ccccc2)O1	–	–	4.1	54.7	12.8
